# Patent publication US8653026B2, “Treatment of type 2 diabetes with FTY720” (Diapin Therapeutics LLC, priority 2011, dated 2014)
# Legend:
# Bcl-xL = Bcl-xL mRNA levels in islets of db/db mice; format: in vivo, mouse; settings: islets from FTY720-treated db/db mice vs untreated
# Procedure: FIG. 10B. Levels of Bcl-xL mRNA levels of the db/db mice with (+FTY720) or without FTY720 (−FTY720) treatment. *p=0.002
# Islets were isolated from pancreases removed from the 13-week-old untreated and FTY720-treated db/db mice by Liberase (Roche Diagnostics) digestion, followed by discontinuous Ficoll gradient separation and manual stereomicroscopic selection to exclude contaminating tissues (30). Isolated islets (or INS-1 cells) were cultured in the medium (composed of RPMI 1640 medium supplemented with 10% fetal bovine serum, 2 mM L-glutamine, 1% sodium pyruvate, 50 μM β-mercaptoethanol, 100 units/ml of penicillin, and 100 μg/ml of streptomycin). For treatment of INS-1 cells, the cells were plated in RPMI medium overnight and changed to Hanks' balanced salt solution containing 2 mM glucose and 0.5% FBS overnight. Then the cells were treated with various conditions in the same medium for 24 hours.
# To determine the mechanism of action (MOA) behind the increase in beta-cell mass observed in the treated mice, beta-cell survival was examined.
# [1] = Body weight of db/db mice with or without oral FTY720; format: in vivo, mouse; settings: FTY720-treated vs untreated group
# Procedure: FIG. 2B. Time course of the body weight of db/db mice with or without oral FTY720. Open circle (∘), FTY720-untreated group; solid circle (●), pre-diabetic db/db mice (Fasting glucose<126 mg/dL) at six-week-old treated with 10 mg/kg FTY720. […]
# Animals and Procedures—Five-week-old female db/db mice (BKS.Cg-m+/−Leprdb) were purchased from Jackson Laboratories (Bar Harbor, Me.). […] After 1 week, the fasting glucose levels of the 6-week-old mice were measured. […] Mice in the FTY720-treated group were fed 10 mg/kg of FTY720 daily by feeding tube and their food intake and body weight were measured twice a week. Fasting glucose levels were measured at the end of each week. […] After metabolic analysis, the pancreases were removed from the mice at 13 and 16 weeks of age for immunohistochemical analysis, quantitation of islet area, or islet isolation.
# beta-cell = assay: In vivo BrdU incorporation (beta-cell regeneration) in pancreas; design: species or system mouse
# Procedure: FIG. 11. BrdU staining in the pancreatic islets after 6 weeks FTY720 treatment. After overnight fasting, the mice were given 1 mg/ml 5-bromo-2′deoxyuridine (BrdU) intraperitoneally. 24 hours later, mice were sacrificed for BrdU staining of pancreas sections. Positive BrdU staining indicates cell proliferation.
# FIG. 12. BrdU staining in the duct areas of the pancreas. After 6 weeks FTY720 treatment, overnight fasted mice were given 1 mg/ml 5-bromo-2′deoxyuridine (BrdU) intraperitoneally. 24 hours later, mice were sacrificed for BrdU staining of pancreas sections.
# FIG. 13. Insulin immunostaining in newly formed insulin containing cells and islets near duct (arrow) in the FTY720-treated db/db mice (Scale bar, 100 μm).
# After overnight fasting, the mice were given 1 mg/ml of 5-bromo-2-deoxyuridine (BrdU) in PBS intraperitoneally. Mice were sacrificed 24 hours after BrdU injection and pancreases were removed and fixed with a 4% formaldehyde solution. The pancreases were then embedded in paraffin and sliced into 10 μm sections. Tissue sections were stained with the anti-BrdU monoclonal antibody provided in BrdU in Situ Detection Kit (BD Biosciences).
# pancreatic islets = assay: Islet morphology (HE and insulin immunostaining) and islet area quantification in pancreas; format: in vivo, mouse
# Description: FIG. 7. Hematoxylin and eosin (HE) staining of pancreas from the FTY720-untreated and the treated mice. After 6 and 9 weeks of treatment, pancreases were removed from the db/db mice and embedded in paraffin. Paraffin sections (10 μm thick) were stained with HE and analyzed with a microscope (Scale bar, 50 μm).
# FIG. 8. Insulin immunostaining (green fluorescence) of the pancreatic islets. After 6 and 9 weeks treatment of FTY720, pancreases were removed from the db/db mice and embedded in paraffin. Paraffin sections (10 μm thick) were immunostained fluorescently for insulin (green color) (Scale bar 50 μm).
# FIG. 9. Stereological quantification of the islet areas in the FTY720-untreated and the FTY720-treated db/db mice. […]
# To assess islet area in pancreas after 6 weeks of treatment with FTY720, six consecutive paraffin sections (10 μm) from a pancreas (10 pancreases for the control and 9 pancreases for the FTY720-treated group) were used. All islet images on a whole section were taken by a Axioplan 2 microscope at X10 magnification, each islet area was measured by the Java-based image-processing program ImageJ (National Institutes of Health, Bethesda, Md.), and the sum of all islet areas from a section was considered to be the islet area per pancreas.
# [2] = db/db mice after 6 weeks FTY720 treatment, no staining in untreated
smiles,measurement,setting,value
"CCCCCCCCc1ccc(CCC(N)(CO)CO)cc1 [FTY720, 2-amino-2-[2-(4-octylphenyl)ethyl]propane-1,3-diol]",Bcl-xL mRNA levels,Bcl-xL,significantly increased
same,weight gain,[1],significantly higher
same,insulin-positive cells or small islets in the pancreatic duct area,"beta-cell; FTY720-treated db/db mice, insulin immunostaining",identified
same,BrdU incorporation in the pancreatic duct area (beta-cell neogenesis),beta-cell; [2],BrdU incorporation was observed
same,BrdU staining within the islets (beta-cell proliferation),beta-cell; [2],BrdU-positive cells were easily observed
same,pancreatic islet size (stereological quantification of islet areas),"pancreatic islets; db/db mice after 6 weeks of treatment, vs untreated group",significantly larger
same,islet morphology,"pancreatic islets; db/db mice, H&E and insulin immunostaining, after 6 and 9 weeks of treatment",normal islet morphology
